Measured values from PubChem BioAssay AID248 (DTP/NCI, 2004).
Toxic doses and inconclusive results are not listed. Rule as the data show it: active = T/C of 150% or more; inactive = T/C below 125%.

System: L1210 leukemia ip in BDF1 mice, survival T/C
Assay: NCI In Vivo Anticancer Drug Screen. Data for tumor model L1210 Leukemia (intraperitoneal) in B6D2F1 (BDF1) mice
Conditions: endpoint: mean survival time, higher = longer survival
How it was run: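 Transplanted-tumor mice were given test agent; controls received vehicle only. Survival readings from the two groups were divided (treated over control).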

[1] = dose: 100.0 mg/kg/injection, schedule: Q04DX002 (ip), vehicle: Klucel (hydroxypropylcellulose) (HPC)
[2] = dose: 200.0 mg/kg/injection, schedule: Q04DX002 (ip), vehicle: Klucel (hydroxypropylcellulose) (HPC)
[3] = dose: 400.0 mg/kg/injection, schedule: Q04DX002 (ip), vehicle: Klucel (hydroxypropylcellulose) (HPC)
[4] = dose: 100.0 mg/kg/injection, schedule: Q04DX003 (ip), vehicle: saline with Tween-80
[5] = dose: 200.0 mg/kg/injection, schedule: Q04DX003 (ip), vehicle: saline with Tween-80
[6] = dose: 100.0 mg/kg/injection, schedule: Q01DX001 (ip), vehicle: saline
[7] = dose: 200.0 mg/kg/injection, schedule: Q01DX001 (ip), vehicle: saline
[8] = dose: 400.0 mg/kg/injection, schedule: Q01DX001 (ip), vehicle: saline
[9] = dose: 100.0 mg/kg/injection, schedule: Q04DX003 (ip), vehicle: saline
[10] = dose: 200.0 mg/kg/injection, schedule: Q04DX003 (ip), vehicle: saline
[11] = dose: 400.0 mg/kg/injection, schedule: Q04DX003 (ip), vehicle: saline
[12] = dose: 100.0 mg/kg/injection, schedule: Q01DX009 (ip), vehicle: saline with Tween-80
[13] = dose: 200.0 mg/kg/injection, schedule: Q01DX009 (ip), vehicle: saline with Tween-80
[14] = dose: 400.0 mg/kg/injection, schedule: Q04DX003 (ip), vehicle: saline with Tween-80
[15] = dose: 100.0 mg/kg/injection, schedule: Q01DX009 (ip), vehicle: Klucel (hydroxypropylcellulose) (HPC)
[16] = dose: 100.0 mg/kg/injection, schedule: Q04DX003 (ip), vehicle: Klucel (hydroxypropylcellulose) (HPC)
[17] = dose: 200.0 mg/kg/injection, schedule: Q01DX009 (ip), vehicle: Klucel (hydroxypropylcellulose) (HPC)
[18] = dose: 200.0 mg/kg/injection, schedule: Q04DX003 (ip), vehicle: Klucel (hydroxypropylcellulose) (HPC)
[19] = dose: 400.0 mg/kg/injection, schedule: Q01DX009 (ip), vehicle: Klucel (hydroxypropylcellulose) (HPC)
[20] = dose: 400.0 mg/kg/injection, schedule: Q04DX003 (ip), vehicle: Klucel (hydroxypropylcellulose) (HPC)
[21] = dose: 50.0 mg/kg/injection, schedule: Q01DX009 (ip), vehicle: saline with Tween-80

Measured: T/C

O=C1c2ccccc2C2(Br)C(=O)c3ccccc3C12Br (stereo not drawn)
inactive: [1] 104 % of control | [2] 101 % of control | [3] 93 % of control

Nc1cnccc1Nc1ccncc1
inactive: [4] 96 % of control | [5] 96 % of control

CCN(CC)C(=O)c1cccc(N)c1
inactive: [6] 98 % of control | [7] 98 % of control | [8] 95 % of control

CNc1cc(C(=O)O)nc(NC)n1
inactive: dose: 25.0 mg/kg/injection, schedule: Q01DX Z (ip), vehicle: saline 102 % of control | dose: 50.0 mg/kg/injection, schedule: Q01DX Z (ip), vehicle: saline 98 % of control

Nc1cc(S(N)(=O)=O)ccc1SSc1ccc(S(N)(=O)=O)cc1N
inactive: dose: 100.0 mg/kg/injection, schedule: Q01DX009 (ip), vehicle: saline 105 % of control | [9] 96 % of control | dose: 200.0 mg/kg/injection, schedule: Q01DX009 (ip), vehicle: saline 99 % of control | [10] 94 % of control | dose: 400.0 mg/kg/injection, schedule: Q01DX009 (ip), vehicle: saline 110 % of control | [11] 89 % of control

CCN(CC)CCN1C(=O)CN=C(c2ccc[nH]2)c2cc(Cl)ccc21
inactive: [12] 121 % of control | [4] 100 % of control | [13] 106 % of control | [5] 94 % of control | dose: 400.0 mg/kg/injection, schedule: Q01DX009 (ip), vehicle: saline with Tween-80 117 % of control | [14] 96 % of control

Nc1c(Br)cc2c(c1Br)Cc1cc(Br)ccc1-2
inactive: dose: 200.0 mg/kg/injection, schedule: Q01DX Z (ip), vehicle: saline 109 % of control | dose: 400.0 mg/kg/injection, schedule: Q01DX Z (ip), vehicle: saline 107 % of control | dose: 800.0 mg/kg/injection, schedule: Q01DX Z (ip), vehicle: saline 112 % of control | dose: 1600.0 mg/kg/injection, schedule: Q01DX Z (ip), vehicle: saline 112 % of control

CCCC(C)(COC(N)=O)COC(=O)NC(C)C (stereo not drawn)
inactive: dose: 25.0 mg/kg/injection, schedule: Q01DX009 (ip), vehicle: Klucel (hydroxypropylcellulose) (HPC) 102 % of control | dose: 25.0 mg/kg/injection, schedule: Q04DX003 (ip), vehicle: Klucel (hydroxypropylcellulose) (HPC) 101 % of control | dose: 50.0 mg/kg/injection, schedule: Q01DX009 (ip), vehicle: Klucel (hydroxypropylcellulose) (HPC) 97 % of control | dose: 50.0 mg/kg/injection, schedule: Q04DX003 (ip), vehicle: Klucel (hydroxypropylcellulose) (HPC) 92 % of control | [15] 94 % of control | [16] 101 % of control | [17] 97 % of control | [18] 95 % of control | [19] 88 % of control | [20] 101 % of control

O=C(O)C1=CCCc2ccc(Br)cc21
inactive: [21] 93 % of control | [12] 95 % of control | [13] 98 % of control

c1cc(C2OCCO2)ccn1
inactive: [6] 101 % of control | [9] 107 % of control | [7] 100 % of control | [10] 100 % of control | [8] 100 % of control | [11] 97 % of control

O=C/C=C/c1ccc([N+](=O)[O-])cc1
inactive: [6] 104 % of control | [12] 98 % of control | [7] 102 % of control | [8] 102 % of control

O=P(O)(Oc1ccccc1)c1ccccc1
inactive: [6] 107 % of control | [7] 105 % of control | [8] 100 % of control

C=C(Br)CNC(=O)C(C)C
inactive: dose: 5.0 mg/kg/injection, schedule: Q04DX003 (ip), vehicle: saline with Tween-80 102 % of control | dose: 10.0 mg/kg/injection, schedule: Q04DX003 (ip), vehicle: saline with Tween-80 103 % of control | dose: 20.0 mg/kg/injection, schedule: Q04DX003 (ip), vehicle: saline with Tween-80 102 % of control

CC1(C)C2CCC1(C(=O)O)C(=O)C2 (stereo not drawn)
inactive: [12] 96 % of control | [13] 95 % of control

CNC(=O)O/N=C(\C(=N\OC(=O)NC)c1ccccc1)c1ccccc1
inactive: dose: 100.0 mg/kg/injection, schedule: Q01DX001 (ip), vehicle: carboxymethylcellulose (CMC) 96 % of control | dose: 200.0 mg/kg/injection, schedule: Q01DX001 (ip), vehicle: carboxymethylcellulose (CMC) 96 % of control | dose: 400.0 mg/kg/injection, schedule: Q01DX001 (ip), vehicle: carboxymethylcellulose (CMC) 96 % of control

CCC(CO)NCc1cc(=O)[nH]c(=O)[nH]1 (stereo not drawn)
inactive: [9] 96 % of control | [10] 96 % of control | [11] 102 % of control

CCOC(=O)c1ccc(NP(=S)(OCC)OCC)cc1
inactive: [21] 94 % of control | [12] 94 % of control | [13] 96 % of control

CCCCNC(=O)c1n[se]nc1NC(N)=O
inactive: dose: 25.0 mg/kg/injection, schedule: Q01DX Z (ip), vehicle: carboxymethylcellulose (CMC) 91 % of control | dose: 37.5 mg/kg/injection, schedule: Q01DX Z (ip), vehicle: carboxymethylcellulose (CMC) 89 % of control | dose: 50.0 mg/kg/injection, schedule: Q01DX Z (ip), vehicle: carboxymethylcellulose (CMC) 90 % of control

Cc1ccc(C(=O)CCC(=O)O)cc1
inactive: [4] 102 % of control | [5] 98 % of control | [14] 94 % of control

CC1(C)CC1(Br)c1ccccc1 (stereo not drawn)
inactive: [6] 96 % of control | [7] 96 % of control | [8] 101 % of control

Cc1nc2c(O)ccc(O)c2nc1C
inactive: dose: 3.12 mg/kg/injection, schedule: Q04DX003 (ip), vehicle: saline with Tween-80 100 % of control | dose: 6.25 mg/kg/injection, schedule: Q04DX003 (ip), vehicle: saline with Tween-80 96 % of control | dose: 12.5 mg/kg/injection, schedule: Q01DX009 (ip), vehicle: saline with Tween-80 94 % of control | dose: 12.5 mg/kg/injection, schedule: Q04DX003 (ip), vehicle: saline with Tween-80 100 % of control | dose: 25.0 mg/kg/injection, schedule: Q01DX009 (ip), vehicle: saline with Tween-80 96 % of control | [21] 94 % of control

O=C(O)C1CC(n2cnc3c(=O)[nH]cnc32)CN1 (stereo not drawn)
inactive: dose: 50.0 mg/kg/injection, schedule: Q04DX002 (ip), vehicle: saline with Tween-80 102 % of control | dose: 100.0 mg/kg/injection, schedule: Q04DX002 (ip), vehicle: saline with Tween-80 98 % of control

COc1ccccc1-n1c(O)c(N=Nc2ccc(Br)cc2)c(=O)n(-c2ccc(Br)cc2)c1=S
inactive: dose: 50.0 mg/kg/injection, schedule: Q01DX001 (ip), vehicle: Klucel (hydroxypropylcellulose) (HPC) 93 % of control | dose: 100.0 mg/kg/injection, schedule: Q01DX001 (ip), vehicle: Klucel (hydroxypropylcellulose) (HPC) 109 % of control | dose: 200.0 mg/kg/injection, schedule: Q01DX001 (ip), vehicle: Klucel (hydroxypropylcellulose) (HPC) 102 % of control

COC(=O)c1ccccc1NC(=S)NC(=O)/C=C/c1ccccc1
inactive: [15] 94 % of control | [16] 97 % of control | [17] 103 % of control | [18] 95 % of control | [19] 106 % of control | [20] 91 % of control

CCn1c(C)nc2cc(N=Cc3ccc(N(CCCl)CCCl)cc3F)ccc21
inactive: [1] 95 % of control | [2] 98 % of control | [3] 91 % of control

Cc1ccc(S(=O)(=O)Oc2ccc(Cl)cc2)cc1
inactive: [15] 102 % of control | [16] 105 % of control | [17] 98 % of control | [18] 97 % of control | [19] 102 % of control | [20] 101 % of control

CCCCOC(=O)c1ccccn1
inactive: [4] 99 % of control | [5] 94 % of control

O=C(c1ccc(Cl)cc1)N1CCC(CCCc2ccccc2)CC1
inactive: [1] 96 % of control | [2] 99 % of control | [3] 96 % of control

CCOc1ccc(/C=N/NC(=O)c2cccc3ccccc23)cc1OCC
inactive: [6] 90 % of control | [8] 90 % of control
